From patent publication US8350027B2, “Dual-acting pyrazole antihypertensive agents” (Theravance, Inc., priority 2009, dated 2013)

Tests used:
human AT1 receptor = biological target: T1, human AT1 receptor (Homo sapiens, UniProt P30556); assay: AT1 radioligand binding assay (displacement of [Eu]AngII); conditions: membranes of CHO-K1 cells expressing cloned human AT1 receptor; values given as lower bounds; read-out: AT1 pKi (converted)
T1 construct: expressed in transfected cells; host or cells: CHO-K1
T1 sequence (P30556 1-359): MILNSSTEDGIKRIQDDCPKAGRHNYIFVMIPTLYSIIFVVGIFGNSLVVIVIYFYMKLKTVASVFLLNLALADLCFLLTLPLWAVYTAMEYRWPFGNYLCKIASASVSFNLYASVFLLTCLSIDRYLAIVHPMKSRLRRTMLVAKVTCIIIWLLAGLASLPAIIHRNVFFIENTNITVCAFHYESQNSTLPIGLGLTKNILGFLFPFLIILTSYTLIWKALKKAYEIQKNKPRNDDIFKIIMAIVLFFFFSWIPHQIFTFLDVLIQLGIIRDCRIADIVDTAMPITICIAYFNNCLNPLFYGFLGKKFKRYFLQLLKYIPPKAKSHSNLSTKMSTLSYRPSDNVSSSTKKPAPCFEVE
Protocol: A. AT1 and AT2 Radioligand Binding Assays
These in vitro assays were used to assess the ability of test compounds to bind to the AT1 and the AT2 receptors.
Membrane Preparation from Cells Expressing Human AT1 or AT2 Receptors
Chinese hamster ovary (CHO-K1) derived cell lines stably expressing the cloned human AT1 or AT2 receptors, respectively, were grown in HAM's-F12 medium supplemented with 10% fetal bovine serum, 10 μg/ml penicillin/streptomycin, and 500 μg/ml geneticin in a 5% CO2 humidified incubator at 37° C. AT2 receptor expressing cells were grown in the additional presence of 100 nM PD123,319 (AT2 antagonist). When cultures reached 80-95% confluence, the cells were washed thoroughly in PBS and lifted with 5 mM EDTA. Cells were pelleted by centrifugation and snap frozen in MeOH-dry ice and stored at −80° C. until further use.
For membrane preparation, cell pellets were resuspended in lysis buffer (25 mM Tris/HCl pH 7.5 at 4° C., 1 mM EDTA, and one tablet of Complete Protease Inhibitor Cocktail Tablets with 2 mM EDTA per 50 mL buffer (Roche cat.#1697498, Roche Molecular Biochemicals, Indianapolis, Ind.)) and homogenized using a tight-fitting Dounce glass homogenizer (10 strokes) on ice. The homogenate was centrifuged at 1000×g, the supernatant was collected and centrifuged at 20,000×g. The final pellet was resuspended in membrane buffer (75 mM Tris/HCl pH 7.5, 12.5 mM MgCl2, 0.3 mM EDTA, 1 mM EGTA, 250 mM sucrose at 4° C.) and homogenized by extrusion through a 20G gauge needle. Protein concentration of the membrane suspension was determined by the method described in Bradford (1976) Anal Biochem. 72:248-54. Membranes were snap frozen in MeOH-dry ice and stored at −80° C. until further use.
Ligand Binding Assay to Determine Compound Affinities for the Human AT1 and AT2 Angiotensin Receptors
Binding assays were performed in 96-well Acrowell filter plates (Pall Inc., cat.#5020) in a total assay volume of 100 μL with 0.2 μg membrane protein for membranes containing the human AT1 receptor, or 2 μg membrane protein for membranes containing the human AT2 receptor in assay buffer (50 mM Tris/HCl pH 7.5 at 20° C., 5 mM MgCl2, 25 μM EDTA, 0.025% BSA). Saturation binding studies for determination of Kd values of the ligand were done using N-terminally Europium-labeled angiotensin-II ([Eu]AngII, H-(Eu-N^1)-Ahx-Asp-Arg-Val-Tyr-Ile-His-Pro-Phe-OH; PerkinElmer, Boston, Mass.) at 8 different concentrations ranging from 0.1 nM to 30 nM. […] Drugs were dissolved to a concentration of 1 mM in DMSO and from there serially diluted into assay buffer. Non-specific binding was determined in the presence of 10 μM unlabeled angiotensin-II. Assays were incubated for 120 minutes in the dark, at room temperature or 37° C., and binding reactions were terminated by rapid filtration through the Acrowell filter plates followed by three washes with 200 μL ice cold wash buffer (50 mM Tris/HCl pH 7.5 at 4° C., 5 mM MgCl2) using a Waters filtration manifold. Plates were tapped dry and incubated with 50 μl DELFIA Enhancement Solution (PerkinElmer cat.#4001-0010) at room temperature for 5 minutes on a shaker. Filter-bound [Eu]AngII was quantitated immediately on a Fusion plate reader (PerkinElmer) using Time Resolved Fluorescence (TRF). Binding data were analyzed by nonlinear regression analysis with the GraphPad Prism Software package (GraphPad Software, Inc., San Diego, Calif.) using the 3-parameter model for one-site competition. The BOTTOM (curve minimum) was fixed to the value for nonspecific binding, as determined in the presence of 10 μM angiotensin II. Ki values for drugs were calculated from observed IC50 values and the Kd value of [Eu]AngII according to the Cheng-Prusoff equation described in Cheng et al. (1973) Biochem Pharmacol. 22 (23):3099-108. Selectivities of test compounds for the AT1 receptor over the AT2 receptor were calculated as the ratio of AT2Ki/AT1Ki. […]

NEP enzyme = biological target: T2, NEP enzyme (Homo sapiens, UniProt P08473); assay: NEP enzyme inhibition assay (fluorogenic peptide substrate); type: biochemical; conditions: values given as lower bounds; * = prodrugs, may not exhibit NEP activity in an in vitro assay; read-out: NEP pIC50 (converted)
T2 construct: purchased R&D Systems, Minneapolis, Minn; 1182-ZN
T2 sequence (P08473 52-750 limits assumed): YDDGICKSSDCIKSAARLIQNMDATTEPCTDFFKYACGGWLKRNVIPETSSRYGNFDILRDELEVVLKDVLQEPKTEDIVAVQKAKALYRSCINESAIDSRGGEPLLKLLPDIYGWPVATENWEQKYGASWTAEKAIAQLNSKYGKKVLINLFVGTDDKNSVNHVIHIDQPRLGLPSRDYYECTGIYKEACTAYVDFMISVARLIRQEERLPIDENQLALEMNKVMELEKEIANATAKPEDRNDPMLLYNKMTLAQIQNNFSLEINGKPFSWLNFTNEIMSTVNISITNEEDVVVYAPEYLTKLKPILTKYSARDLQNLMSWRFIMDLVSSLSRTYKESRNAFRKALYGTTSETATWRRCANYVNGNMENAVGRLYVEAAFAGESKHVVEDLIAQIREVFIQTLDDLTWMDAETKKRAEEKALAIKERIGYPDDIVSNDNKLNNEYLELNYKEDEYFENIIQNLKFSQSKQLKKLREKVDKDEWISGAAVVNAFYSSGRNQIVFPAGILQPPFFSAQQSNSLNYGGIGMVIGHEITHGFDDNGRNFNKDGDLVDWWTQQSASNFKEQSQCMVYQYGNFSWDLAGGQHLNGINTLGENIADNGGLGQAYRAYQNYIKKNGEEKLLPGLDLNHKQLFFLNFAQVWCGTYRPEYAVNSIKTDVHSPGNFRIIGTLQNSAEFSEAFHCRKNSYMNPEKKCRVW
Protocol: B. In Vitro Assays for the Quantitation of Inhibitor Potencies (IC50) at Human and Rat NEP, and Human ACE
The inhibitory activities of compounds at human and rat NEP and human ACE were determined using in vitro assays as described below.
Recombinant human NEP and recombinant human ACE were obtained commercially (R&D Systems, Minneapolis, Minn., catalog numbers 1182-ZN and 929-ZN, respectively). The fluorogenic peptide substrate Mca-BK2 (Mca-Arg-Pro-Pro-Gly-Phe-Ser-Ala-Phe-Lys(Dnp)-OH; Johnson et al. (2000) Anal. Biochem. 286: 112-118) was used for the human NEP and ACE assays, and Mca-RRL (Mca-DArg-Arg-Leu-(Dnp)-OH; Medeiros et al. (1997) Braz. J. Med. Biol. Res. 30:1157-1162) was used for the rat NEP assay (both from Anaspec, San Jose, Calif.).
The assays were performed in 384-well white opaque plates at room temperature using the respective fluorogenic peptides at a concentration of 10 μM in assay buffer (50 mM Tris/HCl at 25° C., 100 mM NaCl, 0.01% Tween-20, 1 μM Zn, 0.025% BSA). […] The rat NEP enzyme preparation was used at a concentration that yielded quantitative proteolysis of 3 μM of Mca-RRL within 20 minutes at room temperature.
Test compounds were diluted to 12 concentrations from 10 μM to 20 pM in Assay Buffer. Assays were started by adding 25 μL of enzyme to 12.5 μL of test compound at each of the 12 concentrations. Test compounds were allowed to equilibrate with the enzyme for 10 minutes before 12.5 μL of the fluorogenic substrates were added to initiate the reaction. Reactions were terminated by the addition of 10 μL of 3.6% glacial acetic acid after 20 minutes of incubation.
For sulfhydryl-containing test compounds, the test compounds may be diluted in Assay Buffer containing a 400 μM concentration of tris(2-carboxyethyl)phosphine hydrochloride (Thermo Scientific, Rockford, Ill.) (TCEP). The test compounds are then incubated for 40 minutes at room temperature (to allow for dimer cleavage) before adding the enzyme. Test compounds are then allowed to equilibrate with the enzyme for 20 minutes before adding the fluorogenic substrates. Reactions are terminated as above.
Plates were read on a fluorometer with excitation and emission wavelengths set to 320 nm and 405 nm, respectively. Raw data (relative fluorescence units) were normalized to % activity from the average high readings (no inhibition, 100% enzyme activity) and average low readings (full inhibition, highest inhibitor concentration, 0% enzyme activity) using three standard NEP and ACE inhibitors, respectively. Nonlinear regression of the normalized data was performed using a one site competition model (GraphPad Software, Inc., San Diego, Calif.). Data were reported as pIC50 values.

With `CCCc1cc(C(=O)N[C@H](Cc2ccccc2)[C@@H](O)C(=O)O)nn1Cc1ccc(-c2ccccc2S(=O)(=O)NC(=O)c2cc(C)on2)cc1` [Example 7-5, (2R,3R)-2-Hydroxy-3-[(1-{2′[(5-methylisoxazole-3-carbonyl)sulfamoyl]biphenyl-4-ylmethyl}-5-propyl-1H-pyrazole-3-carbonyl)amino]-4-phenylbutyric acid] as the compound, how does the Ki (human AT1 receptor) read?
The Ki was ≤ 10 nM.

What about the IC50 (NEP enzyme) of the same compound?
Its IC50 is ≤ 1000 nM.

For `CCOc1cc(C(=O)N[C@H](Cc2ccccc2)[C@@H](O)C(=O)O)nn1Cc1ccc(-c2ccccc2S(=O)(=O)NC(C)=O)cc1` [Example 6-3, (2R,3R)-3-{[1-(2′-Acetylsulfamoylbiphenyl-4-ylmethyl)-5-ethoxy-1H-pyrazole-3-carbonyl]amino}-2-hydroxy-4-phenyl-butyric acid], which Ki (human AT1 receptor) is on record?
Its Ki is ≤ 100 nM.

What about the IC50 (NEP enzyme) of the same compound?
Its IC50 is ≤ 1000 nM.

Which Ki (human AT1 receptor) does the source give for `CCCc1cc(C(=O)N[C@@H](CC(=O)O)Cc2ccccc2Br)nn1Cc1ccc(-c2ccccc2-c2nnn[nH]2)cc1` [Example 3-13, (R)-4-(2-Bromophenyl)-3-({5-propyl-1-[2′-(1H-tetrazol-5-yl)-biphenyl-4-ylmethyl]-1H-pyrazole-3-carbonyl}amino)butyric acid] here?
Its Ki is ≤ 10 nM.

What about the IC50 (NEP enzyme) of the same compound?
Its IC50 is ≤ 1000 nM.

For `CCCc1cc(C(=O)N[C@H](Cc2ccccc2)[C@@H](O)C(=O)O)nn1Cc1ccc(-c2ccccc2S(=O)(=O)NC(=O)c2ccccc2F)cc1` [Example 7-3, (2R,3R)-3-({1-[2′-(2-Fluorobenzoylsulfamoyl)biphenyl-4-ylmethyl]-5-propyl-1H-pyrazole-3-carbonyl}amino)-2-hydroxy-4-phenylbutyric acid], which Ki (human AT1 receptor) is on record?
Its Ki is ≤ 10 nM.

What about the IC50 (NEP enzyme) of the same compound?
Its IC50 is ≤ 1000 nM.

What does the source list for `CCCc1cc(C(=O)N[C@H](Cc2ccccc2Cl)[C@@H](O)C(=O)O)nn1Cc1ccc(-c2ccccc2-c2nnn[nH]2)cc1` [Example 3-22, (2R,3R)-3-(1-((2′-(1H-tetrazol-5-yl)biphenyl-4-yl)methyl)-5-propyl-1H-pyrazole-3-carboxamido)-4-(2-chlorophenyl)-2-hydroxybutanoic acid]?
Ki (human AT1 receptor): ≤ 100 nM; IC50 (NEP enzyme): ≤ 100 nM

What does the source list for `CCCc1cc(C(=O)N[C@@H](CC(=O)O)Cc2ccccc2Cl)nn1Cc1ccc(-c2ccccc2-n2nn[nH]c2=O)cc1` [Example 16-5, (R)-4-(2-Chlorophenyl)-3-({1-[2′-(5-oxo-4,5-dihydrotetrazol-1-yl)-biphenyl-4-ylmethyl]-5-propyl-1H-pyrazole-3-carbonyl}amino)butyric acid]?
Ki (human AT1 receptor): ≤ 10 nM; IC50 (NEP enzyme): ≤ 1000 nM

Which results are given for `CCCc1cc(C(=O)N[C@H](Cc2ccccc2)[C@@H](O)C(=O)O)nn1Cc1ccc(-c2ccccc2S(=O)(=O)NC(=O)C2CC2)cc1` [Example 7-2, (2R,3R)-3-({1-[2′-(Cyclopropanecarbonylsulfamoyl)biphenyl-4-ylmethyl]-5-propyl-1H-pyrazole-3-carbonyl}amino)-2-hydroxy-4-phenylbutyric acid]?
Ki (human AT1 receptor): ≤ 10 nM; IC50 (NEP enzyme): ≤ 100 nM

`CCCc1cc(C(=O)N[C@H](Cc2ccccc2)[C@@H](O)C(=O)NO)nn1Cc1ccc(-c2ccccc2-c2nnn[nH]2)cc1` [Example 3-17, 1-((2′-(1H-tetrazol-5-yl)biphenyl-4-yl)methyl)-N-((2R,3R)-3-hydroxy-4-(hydroxyamino)-4-oxo-1-phenylbutan-2-yl)-5-propyl-1H-pyrazole-3-carboxamide] was tested. Which Ki (human AT1 receptor) did it give?
The Ki was ≤ 10 nM.

What about the IC50 (NEP enzyme) of the same compound?
The IC50 was ≤ 100 nM.

`CCCc1cc(C(=O)N[C@H](Cc2ccccc2)[C@@H](O)C(=O)O)nn1Cc1ccc(-c2ccccc2S(=O)(=O)NC(=O)c2ccncc2)cc1` [Example 7-4, (2R,3R)-2-Hydroxy-4-phenyl-3-[(5-propyl-1-{2′-[(pyridine-4-carbonyl)sulfamoyl]biphenyl-4-ylmethyl}-1H-pyrazole-3-carbonyl)amino]butyric acid] was tested. Which Ki (human AT1 receptor) did it give?
The Ki was ≤ 10 nM.

And the IC50 (NEP enzyme)?
Its IC50 is ≤ 1000 nM.

With `CCOc1cc(C(=O)N[C@@H](CS)Cc2ccccc2)nn1Cc1ccc(-c2ccccc2S(=O)(=O)NC(C)=O)cc1` [Example 6-2, 1-(2′-Acetylsulfamoyl-biphenyl-4-ylmethyl)-5-ethoxy-1H-pyrazole-3-carboxylic acid ((R)-1-benzyl-2-mercaptoethyl)amide] as the compound, how does the Ki (human AT1 receptor) read?
The Ki was ≤ 10 nM.

What about the IC50 (NEP enzyme) of the same compound?
The IC50 was ≤ 100 nM.

What does the source list for `CCCc1cc(C(=O)N[C@H](Cc2ccccc2)[C@@H](O)C(=O)O)nn1Cc1c(F)cc(-c2ccccc2S(=O)(=O)NC(C)=O)cc1F` [Example 6-19, (2R,3R)-3-(1-((2′-(N-acetylsulfamoyl)-3,5-difluorobiphenyl-4-yl)methyl)-5-propyl-1H-pyrazole-3-carboxamido)-2-hydroxy-4-phenylbutanoic acid]?
Ki (human AT1 receptor): ≤ 10 nM; IC50 (NEP enzyme): ≤ 100 nM

`CCCc1cc(C(=O)N[C@@H](CC(=O)O)Cc2ccccc2Br)nn1Cc1ccc(-c2ccccc2-c2nnn[nH]2)nc1` [Example 14-4, (R)-4-(2-Bromophenyl)-3-[(5-propyl-1-{6-[2-(1H-tetrazol-5-yl)-phenyl]-pyridin-3-ylmethyl}-1H-pyrazole-3-carbonyl)amino]butyric acid] was tested. Which Ki (human AT1 receptor) did it give?
The Ki was ≤ 10 nM.

What about the IC50 (NEP enzyme) of the same compound?
Its IC50 is ≤ 100 nM.
